Measurements as given in patent publication US11827637B2, “Azaindole derivatives and their use as ERK kinase inhibitors” (AGV Discovery, priority 2022, dated 2023).
pIC50: −log10 of the molar value. Several values for one entry are separate records, joined by “and”; a condition that tells them apart may be missing. Equal values may be shown once.

What was measured:
[1] = system: A375 cells (malignant melanoma); assay: Cell line proliferation assay (MTT, A375); format: cell-based; details: Homo sapiens, A-375, 72 hours
Protocol: A cell line assay was used to determine the capacity of compounds to inhibit cell proliferation. A375 cells (malignant melanoma) were grown to near 80% confluence and seeded at 3000 cells per 100 μl per well in DMEM with 10% FBS in 96-well flat bottom plates. Cells were incubated for 24 hours at 37° C. under 5% CO2. 100 μl compound solutions were added to cells and incubated for 72 hours at 37° C. Total volume of media was 200 μl per well. Compounds were screened in 0.15% DMSO (final) using 10 titration points in duplicate. Negative control wells consisted of vehicle only (0.15% DMSO in 10% FBS DMEM). After 72 hours of compound treatment, SDS 1% (final) was added to positive control wells for 15 minutes at 37° C. Then, medium was discarded and replaced by 100 μl per well of a MTT solution (3-[4.5-dimethylthiazol-2-yl]-2.5-diphenyltetrazolium bromide) (Sigma, Cat #M5655) at 0.5 mg/ml in 10% FBS DMEM. Cells were incubated for 4 hours at 37° C. MTT reaction was stopped and homogenized by the addition of 100 μl per well of SDS 10% 0.01M HCl. After 16 hours at 37° C., absorbance was measured at 570 nm in a Bio-Tek plate reader (PowerWave HT). […] Analysis was performed using GraphPad Prism software.

58 kinases = assay: Kinase panel (Z′-Lyte, Adapta/Lanthascreen), 58 kinases; format: biochemical; details: for Kinase panel @500 nM hits > 50%: number of the 58 kinases inhibited more than 50% at 500 nM; for Kinase panel @500 nM hits > 80%: number of the 58 kinases inhibited more than 80% at 500 nM
Protocol: To assess the kinase selectivity of compounds, Z′-Lyte biochemical assay, and Adapta/Lanthascreen binding assays from Life technologies were used according to manufacturer's instructions. Pourcentages of inhibition at 500 nM of test compounds were performed towards 58 kinases: ABL1, ACVR1B (ALK4), AKT2 (PKB beta), AMPK (A1/132/G3), AURKA (Aurora A), AXL, BRAF, BTK, CAMK2B (CaMKII beta), CDK2/cyclin A, CHEK1 (CHK1), CLK1, CSNK1A1 (CK1 alpha 1), CSNK2A1 (CK2 alpha 1), DAPK3 (ZIPK), DYRK1A, EGFR (ErbB1), EPHB3, ERBB2 (HER2), FGFR2, FLT3, FRAP1 (mTOR), GSK3B (GSK3 beta), IGF1R, IKBKB (IKK beta), INSR, IRAK4, JAK2, KDR (VEGFR2), KIT, LCK, MAP2K1 (MEK1), MAPK10 (JNK3), MAPK11 (p38 beta), MAPKAPK2, MARK2, MET (cMet), NEK2, NTRK1 (TRKA), PAK2 (PAK65), PDGFRB (PDGFR beta), PDK1 Direct, PHKG2, PIK3CA/PIK3R1 (p110 alpha/p85 alpha), PIM1, PLK1, PRKACA (PKA), PRKCA (PKC alpha), PTK2 (FAK), RET, ROCK1, RPS6KA1 (RSK1), RPS6KB1 (p70S6K), SRC, STK3 (MST2), SYK, TEK (Tie2), TYRO3 (RSE).

ERK2 (MAPK1) = molecular target: T1, ERK2 (MAPK1) (Homo sapiens, UniProt P28482); assay: ERK2 (MAPK1) enzymatic assay (Z′-Lyte); format: biochemical
T1 construct: purchased Life technologies
T1 sequence (P28482 whole entry): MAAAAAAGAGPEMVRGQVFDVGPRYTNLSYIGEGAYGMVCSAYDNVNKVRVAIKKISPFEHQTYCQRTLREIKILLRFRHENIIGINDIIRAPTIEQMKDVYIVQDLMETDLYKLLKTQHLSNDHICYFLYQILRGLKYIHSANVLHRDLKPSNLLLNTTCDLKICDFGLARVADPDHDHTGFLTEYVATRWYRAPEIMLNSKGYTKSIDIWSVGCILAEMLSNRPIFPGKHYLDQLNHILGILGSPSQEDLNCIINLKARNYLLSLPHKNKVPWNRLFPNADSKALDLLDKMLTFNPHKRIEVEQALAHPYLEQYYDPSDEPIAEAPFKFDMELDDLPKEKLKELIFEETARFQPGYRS
Protocol: To assess the capacity of compounds to inhibit ERK2 enzymatic activity, Z′-Lyte biochemical assay from Life technologies was used according to manufacturer's instructions. Briefly, black 384-well plates containing 100 nl of 100× compound solution in 100% DMSO, 2.4 μl kinase buffer, 5 μl 2×MAPK1 (ERK2)/Ser/Thr 03 mixture and 2.5 μl 4×ATP solution were used. Plates were shaken for 30 seconds and incubated for 60 minutes at room temperature. Then, 5 μl of a 1:1024 dilution of Development Reagent A was added. Plates were shaken for 30 seconds and incubated for 60 minutes at room temperature. A plate reader was used to read fluorescence. […] Kinase buffer consisted of 50 mM HEPES pH 7.5, 0.01% BRIJ-35, 10 mM MgCl2, 1 mM EGTA.

Caco 2 cell lines = details: Caco-2, pH 7.4
Protocol: Caco 2 cell lines were used for the in vitro transport studies and were obtained from ATCC. Cells were split every other day at a split ratio of 1:3-1:5 and grown in Dulbecco's Modified Eagle Medium (GlutaMAX I, 4,500 mg/L D-glucose, sodium pyruvate.) supplemented with 10% FBS in the presence of antibiotics. For transport studies, cells were seeded onto polycarbonate Transwell filter membranes (Millipore) at a density of 60,000 cells/well. After 24 h post seeding, changed medium and cultured for another 21 days before transport experiments. For transport studies, donor solutions were prepared by diluting the stock solutions of test compounds in transport medium (HBSS buffer with 10 mM HEPES, pH 7.4). Receiver solutions were the same HBSS buffer with 10 mM HEPES, pH 7.4. The transport of test compounds (5 μM) was measured in duplicate in two directions [apical to basolateral (A→B) and basolateral to apical (B→A)].
The permeability coefficient for membrane transport of test compounds was determined using the following equation: Papp (cm/sec)=(Vr/CO) (1/S) (dC/dt); Papp=apparent permeability, Vr=volume of medium in the receiver chamber, CO=PAR of the test drug in the receiver chamber, S=surface area of monolayer, dC/dt=drug PAR in the receiver chamber with time). Efflux Ratio was defined as: Efflux Ratio=Papp B-A/Papp A-B Bioanalysis was done on LC-MS/MS.

CYP 3A4 = molecular target: T2, CYP 3A4 (Homo sapiens, UniProt P08684); assay: CYP 3A4 inhibition assay in human hepatocytes; format: in vitro ADME; details: cryopreserved human hepatocytes, midazolam probe substrate, 10 min
T2 construct: endogenous in cells; host or cells: cryopreserved human hepatocytes
T2 sequence (P08684 whole entry): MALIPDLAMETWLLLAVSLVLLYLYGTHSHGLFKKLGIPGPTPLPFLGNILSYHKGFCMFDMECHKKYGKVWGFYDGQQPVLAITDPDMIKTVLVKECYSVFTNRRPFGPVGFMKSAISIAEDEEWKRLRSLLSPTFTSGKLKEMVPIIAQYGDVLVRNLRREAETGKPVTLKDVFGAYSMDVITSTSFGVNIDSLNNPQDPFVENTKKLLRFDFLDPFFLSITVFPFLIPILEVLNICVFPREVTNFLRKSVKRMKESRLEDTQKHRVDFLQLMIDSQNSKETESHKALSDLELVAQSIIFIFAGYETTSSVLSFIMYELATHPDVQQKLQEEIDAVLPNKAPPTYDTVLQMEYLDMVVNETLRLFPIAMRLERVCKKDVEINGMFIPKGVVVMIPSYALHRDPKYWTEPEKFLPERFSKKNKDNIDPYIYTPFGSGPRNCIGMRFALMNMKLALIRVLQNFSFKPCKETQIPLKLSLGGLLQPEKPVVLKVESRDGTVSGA
Protocol: To assess the capacity of compounds to inhibit CYP 3A4 enzymatic activity, the test compounds (0.1 μM-25 μM) were incubated with cryopreserved human hepatocytes for 10 min in the presence of the specific CYP3A4 probe substrate, midazolam. 1-Hydroxymidazolam was monitored by LC-MS/MS and a decrease in the formation of the metabolite compared to the vehicle control was used to calculate an IC50 value.

hERG channel = molecular target: T3, hERG channel (Homo sapiens, UniProt Q12809); assay: hERG channel inhibition assay (patch clamp); format: cell-based; details: whole-cell patch clamp, CHO cell line expressing hERG
T3 construct: a Chinese Hamster Ovary cell line stably expressing the full-length ion channel; expressed in transfected cells; host or cells: Chinese Hamster Ovary cell line
T3 sequence (Q12809 whole entry): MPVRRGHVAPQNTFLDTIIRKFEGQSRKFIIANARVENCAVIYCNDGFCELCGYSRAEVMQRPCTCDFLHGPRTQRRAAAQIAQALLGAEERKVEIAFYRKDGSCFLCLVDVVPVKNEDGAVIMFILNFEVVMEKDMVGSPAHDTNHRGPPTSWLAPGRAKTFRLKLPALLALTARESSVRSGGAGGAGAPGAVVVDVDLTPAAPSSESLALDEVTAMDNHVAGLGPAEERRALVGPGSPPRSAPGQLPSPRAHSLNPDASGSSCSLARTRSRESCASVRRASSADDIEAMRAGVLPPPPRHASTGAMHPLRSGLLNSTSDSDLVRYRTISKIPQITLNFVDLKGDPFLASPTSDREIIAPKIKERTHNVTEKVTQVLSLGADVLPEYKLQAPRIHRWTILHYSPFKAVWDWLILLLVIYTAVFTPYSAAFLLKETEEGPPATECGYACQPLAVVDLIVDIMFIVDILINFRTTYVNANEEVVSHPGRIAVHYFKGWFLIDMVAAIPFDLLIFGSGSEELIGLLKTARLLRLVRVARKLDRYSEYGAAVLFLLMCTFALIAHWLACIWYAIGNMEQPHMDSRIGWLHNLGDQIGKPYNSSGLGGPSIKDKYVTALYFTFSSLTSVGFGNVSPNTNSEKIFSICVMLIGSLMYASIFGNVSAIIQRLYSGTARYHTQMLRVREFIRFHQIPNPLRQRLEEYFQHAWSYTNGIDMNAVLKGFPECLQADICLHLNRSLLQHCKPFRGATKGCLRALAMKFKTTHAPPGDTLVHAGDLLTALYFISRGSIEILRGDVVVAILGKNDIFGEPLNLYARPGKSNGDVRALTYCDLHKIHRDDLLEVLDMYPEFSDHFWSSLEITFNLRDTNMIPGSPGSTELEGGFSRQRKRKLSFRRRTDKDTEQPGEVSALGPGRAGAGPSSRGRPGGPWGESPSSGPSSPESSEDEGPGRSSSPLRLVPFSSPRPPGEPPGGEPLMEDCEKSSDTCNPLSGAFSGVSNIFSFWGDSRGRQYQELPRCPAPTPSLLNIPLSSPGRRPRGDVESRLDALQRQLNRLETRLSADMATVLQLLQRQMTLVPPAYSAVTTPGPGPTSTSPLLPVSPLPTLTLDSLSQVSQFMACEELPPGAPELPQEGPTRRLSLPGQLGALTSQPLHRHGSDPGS
Protocol: Compounds were used as a 10 mM stock in DMSO before dilution in HEPES-buffered saline to 30 μM. 6-point concentration-response curves were generated using 3.16-fold serial dilutions from the top test concentration. Electrophysiological recordings were made from a Chinese Hamster Ovary cell line stably expressing the full-length ion channel. Single cell ionic currents were measured in whole-cell configuration at room temperature (21-23° C.) using a Patchliner (Nanion Technologies). The internal solution for hERG contained (mM): 120 KF, 20 KCl, 10 EGTA, 10 HEPES and was buffered to pH 7.3. The external solution (HEPES-buffered saline, HEPES-buffered saline) contained (mM): 138 NaCl, 4.5 KCl, 1.8 CaCl2), 1.0 MgCl2, 10 HEPES, 10 glucose, buffered to pH 7.4. […] Currents were measured from the step and referenced to the holding current. Compounds were then incubated for 2 minutes to achieve steady state prior to addition of the next concentration.

PK experiments in mice = format: in vivo; details: mouse, plasma, male BalbC mice, @20 mpk PO, @1 mpk IV
Protocol: For intravenous injection, a single 1 mg/kg dose was injected in tail vein and blood was collected at 0.12, 0.25, 0.5, 1, 2, 4, 8 and 24 h after injection. For oral route, a single 20 mg/kg dose was administered, and blood was collected at 0.25, 0.5, 1, 2, 4, 8, 10 and 24 h after gavage. Plasma separated from blood samples was stored at −20° C. until analysis. Vials containing the study samples were retrieved and thawed to room temperature. A volume of 50 μl of sample was added to 200 μl of acetronitrile containing internal standard (tolbutamide; 25 ng/mL) and vortexed for 5 min and centrifuged at 14000 rpm for 5 min at 4° C. 200 μl of supernatant was separated and transferred to HPLC vial for analysis. For prodrug pharmacokinetics, only parent drug was dosed by HPLC.

| Compound | pIC50 [1] | Kinase panel @500 nM hits > 50% (58 kinases) | Kinase panel @500 nM hits > 80% (58 kinases) | pIC50 (ERK2 (MAPK1)) | Papp A-B (Caco 2 cell lines) | pIC50 (CYP 3A4) | pIC50 (hERG channel) | bioavailability (PK experiments in mice; 20 mg/kg) | Cmax (PK experiments in mice) | half-life (PK experiments in mice) |
| --- | --- | --- | --- | --- | --- | --- | --- | --- | --- | --- |
| CN(C)C[C@H](c1cccc(Cl)c1)n1ccc(-c2c[nH]c3ncc(N4CCOCC4)cc23)cc1=O [Compound no2 (S), (S)-1-(1-(3-chlorophenyl)-2-(dimethylamino)ethyl)-4-(5-morpholino-1H-pyrrolo[2,3-b]pyridin-3-yl)pyridin-2(1H)-one] | 7.46 | 10/58 | 1/58 | 8.68 | – | – | – | – | – | – |
| (S)-1-(2-amino-1-(3-chlorophenyl)ethyl)-4-(5-morpholino-1H-pyrrolo[2,3-b]pyridin-3-yl)pyridin-2(1H)-one [Comparative compound A (S), reference compound] | – | 26/58 | 15/58 | – | < 10 10^−6 cm/s | – | – | – | – | – |
| CN(C)C[C@H](c1cccc(Br)c1)n1ccc(-c2c[nH]c3ncc(N4CCOCC4)cc23)cc1=O [Compound no5 (S), (S)-1-(1-(3-bromophenyl)-2-(dimethylamino)ethyl)-4-(5-morpholino-1H-pyrrolo[2,3-b]pyridin-3-yl)pyridin-2(1H)-one] | 7.11 | 7/58 | 1/58 | 8.35 | – | 5.02 | 4.69 | 9.2% | 1730 ng/mL and 3.3 µM | 1.83 h |
| CN(C)C[C@H](c1ccc(F)c(I)c1)n1ccc(-c2c[nH]c3ncc(N4CCOCC4)cc23)cc1=O [Compound no8 (S), (S)-1-(2-(dimethylamino)-1-(4-fluoro-3-iodophenyl)ethyl)-4-(5-morpholino-1H-pyrrolo[2,3-b]pyridin-3-yl)pyridin-2(1H)-one] | 7.19 | 7/58 | 1/58 | 8.66 | – | – | – | – | – | – |
| CN(C)C[C@H](c1cccc(F)c1)n1ccc(-c2c[nH]c3ncc(N4CCOCC4)cc23)cc1=O [Compound no1 (S), (S)-1-(2-(dimethylamino)-1-(3-fluorophenyl)ethyl)-4-(5-morpholino-1H-pyrrolo[2,3-b]pyridin-3-yl)pyridin-2(1H)-one] | 6.97 | 2/58 | 1/58 | 8.92 | – | – | – | – | – | – |
| CN(C)C[C@H](c1ccc(Cl)c(Cl)c1)n1ccc(-c2c[nH]c3ncc(N4CCOCC4)cc23)cc1=O [Compound no4 (S), (S)-1-(1-(3,4-dichlorophenyl)-2-(dimethylamino)ethyl)-4-(5-morpholino-1H-pyrrolo[2,3-b]pyridin-3-yl)pyridin-2(1H)-one] | 7.14 | 5/58 | 1/58 | 8.51 | – | – | – | – | – | – |
| CN(C)C[C@H](c1cccc(Cl)c1)n1ccc(-c2c[nH]c3ncc(N4CCOCC4)c(F)c23)cc1=O [Compound no22 (S), (S)-1-(1-(3-chlorophenyl)-2-(dimethylamino)ethyl)-4-(4-fluoro-5-morpholino-1H-pyrrolo[2,3-b]pyridin-3-yl)pyridin-2(1H)-one] | 7.11 | – | – | 8.40 | – | – | – | – | – | – |
| COCc1cc(Cl)cc([C@@H](CN(C)C)n2ccc(-c3c[nH]c4ncc(N5CCOCC5)cc34)cc2=O)c1 [Compound no23 (S), (S)-1-(1-(3-chloro-5-(methoxymethyl)phenyl)-2-(dimethylamino)ethyl)-4-(5-morpholino-1H-pyrrolo[2,3-b]pyridin-3-yl)pyridin-2(1H)-one] | 8.10 | – | – | 8.35 | – | – | – | – | – | – |
| CN(C)C[C@H](c1ccc(F)c(Br)c1)n1ccc(-c2c[nH]c3ncc(N4CCOCC4)cc23)cc1=O [Compound no7 (S), (S)-1-(1-(3-bromo-4-fluorophenyl)-2-(dimethylamino)ethyl)-4-(5-morpholino-1H-pyrrolo[2,3-b]pyridin-3-yl)pyridin-2(1H)-one] | 7.28 | 4/58 | 1/58 | 8.39 | – | – | – | – | – | – |
| CN(C)C[C@H](c1cc(Cl)cc(Cl)c1)n1ccc(-c2c[nH]c3ncc(N4CCOCC4)cc23)cc1=O [Compound no3 (S), (S)-1-(1-(3,5-dichlorophenyl)-2-(dimethylamino)ethyl)-4-(5-morpholino-1H-pyrrolo[2,3-b]pyridin-3-yl)pyridin-2(1H)-one] | 6.88 | 6/58 | 1/58 | 8.49 | – | – | – | – | – | – |
